Test results taken from ChEMBL document CHEMBL1127612, “Maleimidoethyl 3-(tri-n-butylstannyl)hippurate: a useful radioiodination reagent for protein radiopharmaceuticals to enhance target selective radioactivity localization” (J Med Chem, 1994).

Assays:
Details in all cases: in vivo
Mus musculus [1] = assay: Tested for biodistribution of radioactivity after 6 hr of intravenous injection in mice blood; type: ADME, organism-based
Mus musculus [2] = assay: Tested for biodistribution of radioactivity after 24 hr of intravenous injection in mice liver; type: ADME, organism-based
Mus musculus [3] = assay: Tested for biodistribution of radioactivity after 24 hr of intravenous injection in mice blood; type: ADME, organism-based
Mus musculus [4] = assay: Tested for biodistribution of radioactivity after 48 hr of intravenous injection in mice blood; type: ADME, organism-based
Mus musculus [5] = assay: Tested for biodistribution of radioactivity after 10 min of intravenous injection in mice liver; type: ADME, organism-based
Mus musculus [6] = assay: Tested for biodistribution of radioactivity after 24 hr of intravenous injection in mice stomach; type: ADME, organism-based
Mus musculus [7] = assay: Tested for biodistribution of radioactivity after 1 hr of intravenous injection in mice stomach; type: ADME, organism-based
Mus musculus [8] = assay: Tested for biodistribution of radioactivity after 6 hr of intravenous injection in mice lung; type: ADME, organism-based
Mus musculus [9] = assay: Tested for biodistribution of radioactivity after 1 hr of intravenous injection in mice neck; type: ADME, organism-based
Mus musculus [10] = assay: Tested for biodistribution of radioactivity after 6 hr of intravenous injection in mice intestine; type: ADME, organism-based
Mus musculus [11] = assay: Tested for biodistribution of radioactivity after 6 hr of intravenous injection in mice spleen; type: ADME, organism-based
Mus musculus [12] = assay: Tested for biodistribution of radioactivity after 1 hr of intravenous injection in mice spleen; type: ADME, organism-based
Mus musculus [13] = assay: Tested for biodistribution of radioactivity after 1 hr of intravenous injection in mice blood; type: ADME, organism-based
Mus musculus [14] = assay: Tested for biodistribution of radioactivity after 48 hr of intravenous injection in mice liver; type: ADME, organism-based
Mus musculus [15] = assay: Tested for biodistribution of radioactivity after 72 hr of intravenous injection in mice blood; type: ADME, organism-based
Mus musculus [16] = assay: Tested for biodistribution of radioactivity after 3h of intravenous injection in mice kidneys; type: ADME, organism-based, Kidney
Mus musculus [17] = assay: Tested for biodistribution of radioactivity after 24 hr of intravenous injection in mice neck; type: ADME, organism-based
Mus musculus [18] = assay: Tested for biodistribution of radioactivity after 72 hr of intravenous injection in mice lung; type: ADME, organism-based
Mus musculus [19] = assay: Tested for biodistribution of radioactivity after 3h of intravenous injection in mice neck; type: ADME, organism-based
Mus musculus [20] = assay: Tested for biodistribution of radioactivity after 24 hr of intravenous injection in mice feces; type: ADME, organism-based
Mus musculus [21] = assay: Tested for biodistribution of radioactivity after 1 hr of intravenous injection in mice liver; type: ADME, organism-based
Mus musculus [22] = assay: Tested for biodistribution of radioactivity after 24 hr of intravenous injection in mice spleen; type: ADME, organism-based
Mus musculus [23] = assay: Tested for biodistribution of radioactivity after 3h of intravenous injection in mice spleen; type: ADME, organism-based
Mus musculus [24] = assay: Tested for biodistribution of radioactivity after 48 hr of intravenous injection in mice kidneys; type: ADME, organism-based
Mus musculus [25] = assay: Tested for biodistribution of radioactivity after 3h of intravenous injection in mice blood; type: ADME, organism-based
Mus musculus [26] = assay: Tested for biodistribution of radioactivity after 48 hr of intravenous injection in mice stomach; type: ADME, organism-based
Mus musculus [27] = assay: Tested for biodistribution of radioactivity after 48 hr of intravenous injection in mice spleen; type: ADME, organism-based
Mus musculus [28] = assay: Tested for biodistribution of radioactivity after 10 min of intravenous injection in mice stomach; type: ADME, organism-based
Mus musculus [29] = assay: Tested for biodistribution of radioactivity after 72 hr of intravenous injection in mice stomach; type: ADME, organism-based
Mus musculus [30] = assay: Tested for biodistribution of radioactivity after 48 hr of intravenous injection in mice intestine; type: ADME, organism-based
Mus musculus [31] = assay: Tested for biodistribution of radioactivity after 24 hr of intravenous injection in mice intestine; type: ADME, organism-based
Mus musculus [32] = assay: Tested for biodistribution of radioactivity after 1 hr of intravenous injection in mice intestine; type: ADME, organism-based
Mus musculus [33] = assay: Tested for biodistribution of radioactivity after 1 hr of intravenous injection in mice lung; type: ADME, organism-based
Mus musculus [34] = assay: Tested for biodistribution of radioactivity after 6 hr of intravenous injection in mice stomach; type: ADME, organism-based
Mus musculus [35] = assay: Tested for biodistribution of radioactivity after 1 hr of intravenous injection in mice kidneys; type: ADME, organism-based, Kidney
Mus musculus [36] = assay: Tested for biodistribution of radioactivity after 10 min of intravenous injection in mice blood; type: ADME, organism-based
Mus musculus [37] = assay: Tested for biodistribution of radioactivity after 3h of intravenous injection in mice stomach; type: ADME, organism-based
Mus musculus [38] = assay: Tested for biodistribution of radioactivity after 48 hr of intravenous injection in mice lung; type: ADME, organism-based
Mus musculus [39] = assay: Tested for biodistribution of radioactivity after 72 hr of intravenous injection in mice spleen; type: ADME, organism-based
Mus musculus [40] = assay: Tested for biodistribution of radioactivity after 24 hr of intravenous injection in mice lung; type: ADME, organism-based
Mus musculus [41] = assay: Tested for biodistribution of radioactivity after 6 hr of intravenous injection in mice liver; type: ADME, organism-based
Mus musculus [42] = assay: Tested for biodistribution of radioactivity after 6 hr of intravenous injection in mice neck; type: ADME, organism-based
Mus musculus [43] = assay: Tested for biodistribution of radioactivity after 10 min of intravenous injection in mice neck; type: ADME, organism-based
Mus musculus [44] = assay: Tested for biodistribution of radioactivity after 24 hr of intravenous injection in mice kidneys; type: ADME, organism-based, Kidney
Mus musculus [45] = assay: Tested for biodistribution of radioactivity after 72 hr of intravenous injection in mice intestine; type: ADME, organism-based
Mus musculus [46] = assay: Tested for biodistribution of radioactivity after 3h of intravenous injection in mice liver; type: ADME, organism-based
Mus musculus [47] = assay: Tested for biodistribution of radioactivity after 6 hr of intravenous injection in mice kidneys; type: ADME, organism-based, Kidney
Mus musculus [48] = assay: Tested for biodistribution of radioactivity after 10 min of intravenous injection in mice intestine; type: ADME, organism-based
Mus musculus [49] = assay: Tested for biodistribution of radioactivity after 10 min of intravenous injection in mice lung; type: ADME, organism-based
Mus musculus [50] = assay: Tested for biodistribution of radioactivity after 3h of intravenous injection in mice intestine; type: ADME, organism-based
Mus musculus [51] = assay: Tested for biodistribution of radioactivity after 10 min of intravenous injection in mice spleen; type: ADME, organism-based
Mus musculus [52] = assay: Tested for biodistribution of radioactivity after 72 hr of intravenous injection in mice neck; type: ADME, organism-based
Mus musculus [53] = assay: Tested for biodistribution of radioactivity after 48 hr of intravenous injection in mice neck; type: ADME, organism-based
Mus musculus [54] = assay: Tested for biodistribution of radioactivity after 3h of intravenous injection in mice lung; type: ADME, organism-based
Mus musculus [55] = assay: Tested for biodistribution of radioactivity after 72 hr of intravenous injection in mice liver; type: ADME, organism-based
Mus musculus [56] = assay: Tested for biodistribution of radioactivity after 24 hr of intravenous injection in mice urine; type: ADME, organism-based
Mus musculus [57] = assay: Tested for biodistribution of radioactivity after 10 min of intravenous injection in mice kidneys; type: ADME, organism-based
Mus musculus [58] = assay: Tested for biodistribution of radioactivity after 72 hr of intravenous injection in mice kidneys; type: ADME, organism-based

- Dose/g (Mus musculus [1]): 23.13%
- Dose/organ (Mus musculus [2]): 4.94%
- Dose/g (Mus musculus [3]): 14.39%
- Dose/g (Mus musculus [4]): 12.64%
- Dose/organ (Mus musculus [5]): 15.66%
- Dose/organ (Mus musculus [6]): 0.49%
- Dose/organ (Mus musculus [7]): 0.81%
- Dose/organ (Mus musculus [8]): 6.9%
- Dose/organ (Mus musculus [9]): 0.83%
- Dose/organ (Mus musculus [10]): 2.43%
- Dose/organ (Mus musculus [11]): 5.48%
- Dose/organ (Mus musculus [12]): 6.38%
- Dose/g (Mus musculus [13]): 31.31%
- Dose/organ (Mus musculus [14]): 3.84%
- Dose/g (Mus musculus [15]): 11.5%
- Dose/organ (Mus musculus [16]): 7.4%
- Dose/organ (Mus musculus [17]): 0.34%
- Dose/organ (Mus musculus [18]): 3.55%
- Dose/organ (Mus musculus [19]): 0.72%
- Dose/organ (Mus musculus [20]): 0.55%
- Dose/organ (Mus musculus [21]): 14.38%
- Dose/organ (Mus musculus [22]): 3.37%
- Dose/organ (Mus musculus [23]): 5.7%
- Dose/organ (Mus musculus [24]): 3.27%
- Dose/g (Mus musculus [25]): 26.13%
- Dose/organ (Mus musculus [26]): 0.42%
- Dose/organ (Mus musculus [27]): 2.35%
- Dose/organ (Mus musculus [28]): 0.44%
- Dose/organ (Mus musculus [29]): 0.4%
- Dose/organ (Mus musculus [30]): 0.91%
- Dose/organ (Mus musculus [31]): 1.06%
- Dose/organ (Mus musculus [32]): 2.03%
- Dose/organ (Mus musculus [33]): 11.1%
- Dose/organ (Mus musculus [34]): 1.3%
- Dose/organ (Mus musculus [35]): 8.15%
- Dose/organ (Mus musculus [36]): 38.38%
- Dose/organ (Mus musculus [37]): 1.31%
- Dose/organ (Mus musculus [38]): 4.25%
- Dose/organ (Mus musculus [39]): 1.83%
- Dose/organ (Mus musculus [40]): 5.55%
- Dose/organ (Mus musculus [41]): 9.83%
- Dose/organ (Mus musculus [42]): 0.55%
- Dose/organ (Mus musculus [43]): 0.66%
- Dose/organ (Mus musculus [44]): 4.23%
- Dose/organ (Mus musculus [45]): 0.83%
- Dose/organ (Mus musculus [46]): 11.17%
- Dose/organ (Mus musculus [47]): 6.57%
- Dose/organ (Mus musculus [48]): 0.85%
- Dose/organ (Mus musculus [49]): 11.91%
- Dose/organ (Mus musculus [50]): 2.88%
- Dose/organ (Mus musculus [51]): 7.07%
- Dose/organ (Mus musculus [52]): 0.25%
- Dose/organ (Mus musculus [53]): 0.34%
- Dose/organ (Mus musculus [54]): 7.97%
- Dose/organ (Mus musculus [55]): 3.34%
- Dose/organ (Mus musculus [56]): 10.09%
- Dose/organ (Mus musculus [57]): 6.31%
- Dose/organ (Mus musculus [58]): 2.73%
Compound: NCCCCC(N)C(=O)NC(=O)c1cccc(I)c1 (stereo not drawn)
